Test [1] has as its system HCT-116. The test can be described thus: Antiproliferative activity against human HCT-116 cells assessed as inhibition rate at 20 uM incubated for 24 hrs by MTT assay relative to control. Type of test: functional. (Tetrazolium dyes change colour on reduction, which living cells bring about.)
Test [2] relates to HCT-116. The test can be described thus: Antiproliferative activity against human HCT-116 cells incubated for 24 hrs by MTT assay. It is filed as functional, cell-based. Conditions: HCT-116, 24 h.
In test [3] the test system is RKO. In words: Antiproliferative activity against human RKO cells incubated for 24 hrs by MTT assay. It is filed as functional, cell-based.

What is called inhibition is how much of the control response was suppressed. As usually defined, the IC50 is the point on the concentration scale where inhibition reaches its midpoint. A lower IC50 goes with greater potency in that assay.

As to `CC12c3ccccc3CCN1CCc1c2[nH]c2ccc(Cl)cc12` (stereo not drawn), in test [1], the inhibition at 20 µM worked out at 83.7%. For the compound `Cc1ccc2c(c1)C1(C)c3[nH]c4ccc(Cl)cc4c3CCN1CC2` (stereo not drawn), the IC50 in test [2] amounted to 7.52 µM; in test [3] it was 7.28 µM. The inhibition at 20 µM in test [1] was 92.1%. As for `CC12c3ccccc3CCN1CCc1c2[nH]c2ccc(OCc3ccccc3)cc12` (stereo not drawn), the inhibition at 20 µM in test [1] came out at 20.4%. On the same count and under the same terms, the same measure for `CC12c3ccc(Cl)cc3CCN1CCc1c2[nH]c2ccc(F)cc12` (stereo not drawn): 18.4%. With `CC12c3ccccc3CCN1CCc1c2[nH]c2ccc(F)cc12` (stereo not drawn), the inhibition at 20 µM in test [1] is 7.8%.

In the case of `COc1ccc2[nH]c3c(c2c1)CCN1CCc2ccccc2C31C` (stereo not drawn), the inhibition at 20 µM in test [1] was 10.9%. `Cc1ccc2c(c1)CCN1CCc3c([nH]c4ccc(Cl)cc34)C21C` (stereo not drawn): the values for the IC50 in test [2] and in test [3] were 6.36 µM and 6.48 µM, respectively. Besides, the inhibition at 20 µM in test [1] is 88.3%. For the compound `CC12c3ccccc3CCN1CCc1c2[nH]c2ccc(Br)cc12` (stereo not drawn), the inhibition at 20 µM in test [1] came to 3.6%. Consider `C[C@@]12c3ccc(Cl)cc3CCN1CCc1c2[nH]c2ccc(Cl)cc12`, for which the inhibition at 20 µM in test [1] came to 84%. Turning to `Cc1ccc2[nH]c3c(c2c1)CCN1Cc2ccccc2C31C` (stereo not drawn), the inhibition at 20 µM in test [1] was 43.9%.

With `Cc1ccc2c(c1)C1(C)c3[nH]c4ccc(Cl)cc4c3CCN1C2` (stereo not drawn), the inhibition at 20 µM in test [1] amounted to 64.6%. `C[C@]12c3ccc(Cl)cc3CCN1CCc1c2[nH]c2ccc(Cl)cc12`: the inhibition at 20 µM in test [1] turned out to be 81%. For `CC12c3ccc(F)cc3CCN1CCc1c2[nH]c2ccc(Cl)cc12` (stereo not drawn), in test [1], the inhibition at 20 µM came out at 88.7%.

On to `CC12c3cc(F)ccc3CCN1CCc1c2[nH]c2ccc(Cl)cc12` (stereo not drawn), for which, in test [1], the inhibition at 20 µM is 80.7%.

Take `CC12c3ccccc3CN1CCc1c2[nH]c2ccc(Cl)cc12` (stereo not drawn): in test [1], the inhibition at 20 µM came out at 43.8%. In the case of `COc1ccc2c(c1)C1(C)c3[nH]c4ccc(Cl)cc4c3CCN1CC2` (stereo not drawn), the inhibition at 20 µM in test [1] was 77%. For the compound `COc1ccc2[nH]c3c(c2c1)CCN1Cc2ccccc2C31C` (stereo not drawn), the inhibition at 20 µM in test [1] was found to be 28.9%. With `CC12c3ccc(Cl)cc3CC(=O)N1CCc1c2[nH]c2ccc(Cl)cc12` (stereo not drawn), the inhibition at 20 µM in test [1] turned out to be 70.3%.

In the case of `Cc1ccc2[nH]c3c(c2c1)CCN1CCc2cc(Cl)ccc2C31C` (stereo not drawn), in test [1], the inhibition at 20 µM came out at 22.8%.

For `CC12c3cc(F)ccc3CC(=O)N1CCc1c2[nH]c2ccc(Cl)cc12` (stereo not drawn), the inhibition at 20 µM in test [1] was determined as 49%. Regarding `CC12c3ccccc3CC(=O)N1CCc1c2[nH]c2ccccc12` (stereo not drawn), in test [1], the inhibition at 20 µM turned out to be 65.2%. On the same count and under the same terms, the same measure for `CC12c3ccc(Cl)cc3CCN1CCc1c2[nH]c2ccc(Br)cc12` (stereo not drawn): 3.6%. With `COc1ccc2[nH]c3c(c2c1)CCN1CCc2cc(Cl)ccc2C31C` (stereo not drawn), the inhibition at 20 µM in test [1] came to 66.7%. Still for that read-out and setting: the same measure for `CC12c3cc(O)ccc3CN1CCc1c2[nH]c2ccc(Cl)cc12` (stereo not drawn): 26.9%; for `Cc1ccc2[nH]c3c(c2c1)CCN1CCc2ccccc2C31C` (stereo not drawn): 59.5%; for `Cc1ccc2c(c1)C1(C)c3[nH]c4ccccc4c3CCN1C2` (stereo not drawn): 36%. Regarding `CC12c3cc(Cl)ccc3CCN1CCc1c2[nH]c2ccc(Cl)cc12` (stereo not drawn), the IC50 in test [2] was 6.77 µM; in test [3], 6.84 µM. For the same compound, in test [1], the inhibition at 20 µM is 89.1%.
